{"source": "patent US20060039985A1", "about": "“Methotrexate compositions” (priority 2004, published 2006)", "assay_type_in_all_cases": "physicochemical", "key": {"[1]": {"experiment": "Karl Fisher moisture determination", "settings": "Karl Fisher potentiometric titration; powder in formamide; 0.6 % RSD", "protocol": "Moisture content in methotrexate powder was measured by Karl Fisher potentiometric titration by direct injection using a Mitsubishi model CA-06 moisturemeter (Mitsubishi Kasei Corporation, Japan). The powder was dissolved/dispersed in 2.5 mL formamide and 1 mL of the solution was injected […]. Titration checks were made by injecting water standards, Mitsubishi (catalogue number MC02020), at several time intervals."}, "[2]": {"experiment": "Dynamic vapor sorption (DVS) study", "settings": "25° C.", "protocol": "Water sorption/desorption studies were conducted on a DVS-1000 moisture balance system (Surface Measurement Systems, UK). A sample (15-30 mg) was initially dried at 25° C. until a constant weight was achieved. The relative humidity was increased from 0 to 90% (with 5% relative humidity increments). Each successive increment was initiated when the change in weight at a given relative humidity was smaller than 5 μg over 5 minutes. Once the sample was exposed to 90% relative humidity, the process was reversed from 90% to 0 relative humidity (with 10% relative humidity increments)."}, "[3]": {"experiment": "Modulated differential scanning calorimetry (MDSC) study", "settings": "MDSC heating, 2° C./minute", "method": "MDSC studies were performed using a TA 2920 instrument (TA instruments, New Castle, Del.). A sample (5-10 mg) of the powder was filled into an aluminum DSC pan in a glove box, with the relative humidity maintained under 1%, and hermetically sealed using a sample encapsulation press. Helium was used as a purge at 30 cm^3/minute; the Refrigerated Control System (RCS) used helium at a flow rate of 110 cm^3/minute. The MDSC protocol was as follows: equilibrate at 0° C.; modulate ±0.318° C. every 60 seconds; ramp 2° C./minute to 200° C.; isothermal for 5 minutes; ramp 10° C./minute to 0° C.; isothermal for 5 minutes; modul 0.318° C. every 60 seconds; ramp 2° C./minute to 280° C."}, "[4]": {"experiment": "Solubility in REDISPERSE organic solvent (noted in the PLM study)", "protocol": "PLM and hot stage microscopy studies were done using a Nikon (Melville, N.Y.) Optihot-2 polarizing microscope. A Mettler (Columbus, Ohio) Toledo FP82HT hot stage attachment provided the variable temperature analyses from room temperature to 250° C. at 10° C. per minute. Photomicrographs were taken using a Nikon 35 mm attachment using either a 20× or 40× objective. Microscope slides and coverslips were cleaned with methanol prior to use.\nBirefringence persisted after quench cooling from […]"}}}
{"smiles": "CN(Cc1cnc2nc(N)nc(N)c2n1)c1ccc(C(=O)N[C@@H](CCC(=O)O)C(=O)O)cc1", "note": "[methotrexate]", "values": [{"measurement": "Moisture content", "setting": "[1]", "result": 7.1, "unit": "%"}, {"measurement": "Hygroscopicity compared to crystalline material", "setting": "[2]", "result": "hygroscopic than the crystalline material"}, {"measurement": "Relative humidity at which signs of moisture-induced crystallization are observed in DVS time profile", "setting": "[2]", "result": 70, "unit": "% relative humidity"}, {"measurement": "Hysteresis upon desorption of water", "setting": "[2]; 90% to 0 relative humidity", "result": "no hysteresis"}, {"measurement": "Absorption of water, % of its weight", "setting": "[2]; at 90% relative humidity", "result": "about 13.5%"}, {"measurement": "Storage relative humidity for long term stability of liquid crystalline phase", "setting": "[2]; suggested by DVS data", "result": "below 70 % relative humidity"}, {"measurement": "Decomposition temperature", "setting": "[3]", "result": "246-250 °C"}, {"measurement": "Solubility in REDISPERSE brand of solvent", "setting": "[4]", "result": "insoluble"}]}
